Test systems include CCRF-CEM; SF-295; IGROV-1; U-251; SF-268; A549; RXF 393; UO-31; HCT-15; SNB-19; OVCAR-3; HL-60; K562; OVCAR-8; MOLT-4; UACC-257; SK-MEL-28; LOX IMVI; SK-MEL-2.
Common to all, as to experiment: inhibition of tumour cell growth, NCI panel, 48 h

Each structure is given as a SMILES string.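 All cell lines were grown in 96-well plates and treated with compound for 48 hours. GI50 is the concentration that inhibits growth by half.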 Activity calls are given as the source filed them. Cut-off read from the data, not from the text of the source: active = GI50 up to about 1.1 µM and inactive = higher. Bounds are passed on as bounds.

With `Cc1cc2c(cc1Cl)Sc1nnc(C)n1S2(=O)=O`, the GI50 in the test on CCRF-CEM was 8.53 µM (inactive); with SF-295, 15.7 µM (inactive); in the test with IGROV-1, 12.3 µM (inactive); in the test on U-251, 15.1 µM (inactive); with SF-268 it was 14.9 µM (inactive); in the test on A549, 25.1 µM (inactive). The GI50 is 17.6 µM (inactive) with RXF 393; 10.6 µM (inactive) with UO-31; 11.2 µM in the test with HCT-15; 23.5 µM (inactive) in the test on SNB-19; 12.6 µM (inactive) with OVCAR-3; 6.78 µM (inactive) in the test on HL-60. The GI50 is 13.8 µM (inactive) in the test with K562; 17.5 µM (inactive) in the test with OVCAR-8; 14.4 µM (inactive) in the test with MOLT-4; 13.9 µM (inactive) with UACC-257; 16.9 µM (inactive) in the test on SK-MEL-28; 10.1 µM (inactive) in the test on LOX IMVI.
For `COCOc1ccc(C(=O)Oc2cccc3c2OC(C)(C)O3)c(OCOC)c1`, the GI50 with CCRF-CEM was 22.1 µM (inactive); in the test on SF-295 it was > 100 µM (inactive); in the test on IGROV-1 it was > 100 µM (inactive); in the test with U-251 it was 27.9 µM (inactive); in the test with SF-268, 35.6 µM (inactive); in the test with RXF 393, 78.2 µM (inactive). The GI50 is 71.1 µM (inactive) in the test with UO-31; 83.4 µM in the test with HCT-15; > 100 µM (inactive) in the test with OVCAR-3; 0.0181 µM (active) with HL-60; 56.4 µM (inactive) in the test with K562; > 100 µM (inactive) in the test with OVCAR-8. Moreover, the GI50 with MOLT-4 is 53.2 µM (inactive); in the test with UACC-257, > 100 µM (inactive); with SK-MEL-28 it was 9.66 µM (inactive); with LOX IMVI, 35.7 µM (inactive).
For `O=[N+]([O-])c1ccc2nc3ccscc-3c2c1`, the GI50 in the test on CCRF-CEM was 5 µM (inactive); in the test with SF-295, 24.2 µM (inactive); in the test on IGROV-1, 27.4 µM (inactive); with U-251 it was 7.76 µM (inactive); with SK-MEL-2, 6.75 µM (inactive); with SF-268, 14.7 µM (inactive). For the same compound, the GI50 with A549 is 18.3 µM (inactive); with UO-31 it was 8.13 µM (inactive); in the test on HCT-15, 15.2 µM; in the test on SNB-19 it was 6.98 µM (inactive); with OVCAR-3, 7.94 µM (inactive); in the test on HL-60, 4.81 µM (inactive). In addition, the GI50 with K562 is 4.6 µM (inactive); in the test on MOLT-4, 5.87 µM (inactive); with UACC-257 it was 14.3 µM (inactive); in the test with SK-MEL-28, 27.8 µM (inactive); with LOX IMVI it was 18.7 µM (inactive).
Turning to `c1ccc2c(c1)ccc1nc(-c3ccc4c(c3)OCO4)c3c(c12)CCC3`, the GI50 in the test on CCRF-CEM was 74.5 µM (inactive); in the test with SF-295, 77.4 µM (inactive); in the test with U-251, > 100 µM (inactive); with SK-MEL-2 it was > 100 µM (inactive); with SF-268 it was > 100 µM (inactive); in the test with A549, 95.9 µM (inactive). Moreover, the GI50 with UO-31 is 78 µM (inactive); with HCT-15, 83.2 µM; in the test with SNB-19, > 100 µM (inactive); with OVCAR-3 it was > 100 µM (inactive); in the test on K562, 20.5 µM (inactive); in the test with OVCAR-8 it was 56.4 µM (inactive). In addition, the GI50 in the test on MOLT-4 was 42.8 µM (inactive); with UACC-257, > 100 µM (inactive); in the test with SK-MEL-28 it was > 100 µM (inactive).
In the case of `O=C(Nc1nc2ccc([N+](=O)[O-])cc2s1)c1cc([N+](=O)[O-])ccc1Cl`, the GI50 is 3.4 µM (inactive) in the test with SF-295; 2.95 µM (inactive) in the test with U-251; 3.41 µM (inactive) in the test on SF-268; 3.69 µM (inactive) with RXF 393; 1.93 µM in the test with HCT-15; 1.59 µM (inactive) with OVCAR-3. The GI50 in the test on OVCAR-8 is 2.85 µM (inactive); with MOLT-4, 3.21 µM (inactive); in the test on UACC-257, 3.23 µM (inactive); in the test with LOX IMVI it was 2.05 µM (inactive).
As for `COc1ccc(N[C@H](C[S+]([O-])c2ccc(C)cc2)c2ccc(F)cc2)cc1` (some centres undefined), the GI50 is > 100 µM (inactive) in the test with CCRF-CEM; 41.8 µM (inactive) in the test on SF-295; < 0.01 µM (active) in the test on IGROV-1; 44.5 µM (inactive) in the test with U-251; > 100 µM (inactive) in the test on SK-MEL-2; 24.7 µM (inactive) in the test on SF-268. Besides, the GI50 in the test on A549 was 43 µM (inactive); with RXF 393 it was 48.4 µM (inactive); in the test on UO-31, > 100 µM (inactive); in the test on HCT-15, 27.5 µM; in the test on SNB-19, 35.8 µM (inactive); with OVCAR-3, > 100 µM (inactive). Besides, the GI50 in the test with K562, with OVCAR-8, in the test with MOLT-4, in the test with UACC-257, in the test on SK-MEL-28 and with LOX IMVI was > 100 µM (inactive) throughout.
Turning to `O=C(NN1C(=O)CSC1c1ccco1)c1ccncc1` (centres undefined), the GI50 with CCRF-CEM, with SF-295, with IGROV-1, in the test on U-251, with SK-MEL-2 and with SF-268 was > 100 µM (inactive) each time. The GI50 is > 100 µM (inactive) in the test with A549; > 100 µM (inactive) in the test with RXF 393; > 100 µM (inactive) in the test with UO-31; above 100 µM in the test with HCT-15; > 100 µM (inactive) with SNB-19; > 100 µM (inactive) in the test with OVCAR-3. Besides, the GI50 in the test on HL-60, in the test with K562, in the test with OVCAR-8, with MOLT-4, in the test on UACC-257 and with SK-MEL-28 was > 100 µM (inactive) each time.
For `Cc1ccc(S(=O)(=O)C(C#N)c2nc3ccccc3nc2-n2ccnc2)cc1` (centres undefined), the GI50 in the test with CCRF-CEM, in the test on SF-295, in the test with IGROV-1, in the test with U-251, in the test on SK-MEL-2 and in the test on SF-268 was > 100 µM (inactive) in each case. Also, the GI50 in the test on A549 is > 100 µM (inactive); in the test on UO-31, > 100 µM (inactive); with HCT-15, above 100 µM; with SNB-19, > 100 µM (inactive); with OVCAR-3, > 100 µM (inactive); with HL-60, > 100 µM (inactive). Also, the GI50 in the test with K562, in the test on OVCAR-8, in the test with MOLT-4, in the test with UACC-257 and with SK-MEL-28 was > 100 µM (inactive) in each case.
Regarding `CN(C)CC(C)(C)C(=O)/C=C/c1ccccc1`, the GI50 in the test with CCRF-CEM was 3.39 µM (inactive); in the test on SF-295, 17.5 µM (inactive); in the test on IGROV-1, 12.9 µM (inactive); with U-251, 16.3 µM (inactive); with A549, 28.8 µM (inactive); in the test on RXF 393, 11.9 µM (inactive). In addition, the GI50 was 11 µM (inactive) in the test with UO-31; 12.6 µM with HCT-15; 15.8 µM (inactive) in the test on SNB-19; 17.5 µM (inactive) with OVCAR-3; 5.58 µM (inactive) with HL-60; 5.13 µM (inactive) in the test on K562. Moreover, the GI50 in the test with OVCAR-8 was 18 µM (inactive); with MOLT-4, 14.4 µM (inactive); in the test on UACC-257, 12.8 µM (inactive); in the test with SK-MEL-28, 16 µM (inactive); in the test on LOX IMVI it was 11.2 µM (inactive).
For `CN(C)CCn1cnc2sc3ccccc3c21`, the GI50 with CCRF-CEM, with SF-295, with IGROV-1, with U-251, in the test on SK-MEL-2 and in the test with SF-268 was > 100 µM (inactive) in each case. For the same compound, the GI50 in the test with A549 was > 100 µM (inactive); in the test with RXF 393, 82.8 µM (inactive); in the test on HCT-15 it was above 100 µM; in the test with SNB-19, > 100 µM (inactive); with OVCAR-3, > 100 µM (inactive); with K562, > 100 µM (inactive). The GI50 in the test with OVCAR-8, with MOLT-4, in the test on UACC-257, in the test with SK-MEL-28 and in the test on LOX IMVI was > 100 µM (inactive) throughout.
Take `COc1ccc2nc3cccc([N+](=O)[O-])c3c(NCCN(C)C)c2c1`: the GI50 with CCRF-CEM is 0.16 µM (active); in the test with SF-295 it was 0.233 µM (active); in the test with IGROV-1, 0.167 µM (active); in the test with U-251, 0.149 µM (active); in the test with SK-MEL-2, 0.127 µM (active); with SF-268, 0.145 µM (active). Further, the GI50 is 0.0515 µM (active) in the test with A549; 0.0851 µM (active) in the test on RXF 393; 0.176 µM (active) in the test with UO-31; 0.0716 µM in the test with HCT-15; 0.282 µM (active) in the test on SNB-19; 0.127 µM (active) in the test with OVCAR-3. The GI50 with K562 was 0.0292 µM (active); in the test on OVCAR-8 it was 0.0638 µM (active); in the test with MOLT-4, 0.103 µM (active); in the test on UACC-257 it was 0.191 µM (active); with SK-MEL-28, 0.161 µM (active); in the test with LOX IMVI, 0.0325 µM (active).
On to `CC(=O)CCn1c(=S)sc2ccccc21`, for which the GI50 with CCRF-CEM was 25.6 µM (inactive); in the test on SF-295 it was > 100 µM (inactive); in the test on IGROV-1, 98.6 µM (inactive); in the test on U-251, > 100 µM (inactive); in the test on SK-MEL-2, > 100 µM (inactive); in the test with SF-268 it was > 100 µM (inactive). Besides, the GI50 in the test on A549 is > 100 µM (inactive); in the test with RXF 393, > 100 µM (inactive); in the test on UO-31 it was 41.3 µM (inactive); in the test with HCT-15, above 100 µM; in the test with SNB-19, > 100 µM (inactive); in the test on OVCAR-3 it was > 100 µM (inactive). Moreover, the GI50 in the test with HL-60 is 17.5 µM (inactive); in the test on OVCAR-8, > 100 µM (inactive); with MOLT-4, > 100 µM (inactive); with UACC-257, > 100 µM (inactive); in the test on SK-MEL-28 it was > 100 µM (inactive); with LOX IMVI it was > 100 µM (inactive).

Source of the values: ChEMBL document CHEMBL1201862, “PubChem BioAssay data set” (2004).
